Read-outs that look alike come from different tables or passages of the source.
Assays:
Assay type in all cases: cell-based
BCPAP = assay: Anti-proliferation assay, BCPAP; conditions: Thyroid
Description: Cells were maintained in a 1:1 mixture of Advanced DMEM/F12 (Gibco) supplemented with non-essential amino acids, L-glutamine (2 mM), streptomycin (500 μg/mL), penicillin (100 units/mL), and 10% FBS. Cells were grown to confluence in a humidified atmosphere (37° C., 5% CO2), seeded (2000/well, 100 μL) in 96-well plates, and allowed to attach overnight. Compound at varying concentrations in DMSO (1% DMSO final concentration) was added, and cells were returned to the incubator for 72 h. At 72 h, the number of viable cells was determined using an MTS/PMS cell proliferation kit (Promega) per the manufacturer's instructions. Cells incubated in 1% DMSO were used at 100% proliferation, and values were adjusted accordingly. IC50 values were calculated from separate experiments performed in triplicate using GraphPad Prism.

[1] = tested on: SKBr3 (estrogen receptor negative, Her2 over-expressing breast cancer cells); assay: Anti-proliferation assay (MTS/PMS, 72 h), SKBr3; conditions: Breast Cancer, read-out: IC50 SKBr3
JMAR = assay: Anti-proliferation assay, JMAR; conditions: HSNCC
Procedure, shortened: (§1)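 Seeding density 2000 cells/well; 72 h treatment at varying concentrations, DMSO held at 1%. Viability determined by MTS/PMS kit, with vehicle-treated cells defining full proliferation, and IC50 calculated across separate triplicate experiments.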

DRO81-1 = assay: Anti-proliferation assay, DRO81-1; conditions: Thyroid
Procedure, shortened: as §1

PC-3 = assay: Anti-proliferation assay, PC-3; conditions: Prostate Cancer
Procedure, shortened: as §1

MRC5 = assay: Anti-proliferation assay, MRC5 (normal); conditions: Homo sapiens
Procedure, shortened: as §1

[2] = tested on: MCF-7 (estrogen receptor positive breast cancer cells); assay: Anti-proliferation assay (MTS/PMS, 72 h), MCF-7; conditions: Breast Cancer, read-out: IC50 MCF-3
MDAMB231 = assay: Anti-proliferation assay, MDAMB231; conditions: Tri-Neg
Procedure, shortened: as §1

MDA1986 = assay: Anti-proliferation assay, MDA1986; conditions: HSNCC
Procedure, shortened: as §1

HMLE = assay: Anti-proliferation assay, HMLE (normal); conditions: HMLE
Procedure, shortened: as §1

HCT-116 = assay: Anti-proliferation assay, HCT-116
Procedure, shortened: as §1

A-549 = assay: Anti-proliferation assay, A-549
Procedure, shortened: as §1

[3] = Homo sapiens, BCPAP, Table 6, substituted phenyl ureas
[4] = Homo sapiens, SK-BR-3, Table 6, substituted phenyl ureas
[5] = JMAR, Table 6, substituted phenyl ureas
[6] = Table 6, substituted phenyl ureas
[7] = Homo sapiens, PC-3, Table 6, substituted phenyl ureas
[8] = MRC5, Table 6, substituted phenyl ureas
[9] = Homo sapiens, MCF7, Table 6, substituted phenyl ureas
[10] = Homo sapiens, MDA-MB-231, Table 6, substituted phenyl ureas
[11] = MDA1986, Table 6, substituted phenyl ureas
[12] = Homo sapiens, HCT-116, Table 6, substituted phenyl ureas
[13] = Homo sapiens, A549, Table 6, substituted phenyl ureas

Row | IC50 ([1]; Table 9, non-aryl ureas) [µM] | IC50 (PC-3; Table 9, non-aryl ureas) [µM] | IC50 ([2]; Table 9, non-aryl ureas) [µM] | IC50 (MDAMB231; Table 9, non-aryl ureas) [µM] | IC50 (HCT-116; Table 9, non-aryl ureas) [µM] | IC50 (A-549; Table 9, non-aryl ureas) [µM] | SMILES | IC50 (BCPAP; Table 9, non-aryl ureas) [µM] | IC50 (JMAR; Table 9, non-aryl ureas) [µM] | IC50 (DRO81-1; Table 9, non-aryl ureas) [µM] | IC50 (MDA1986; Table 9, non-aryl ureas) [µM] | further results
1 |  |  |  |  |  |  | COc1ccc(NC(=O)Nc2cc3ccc(OC4CCN(C)CC4)c(C)c3oc2=O)cc1-c1cccc(OC(C)=O)c1 [OMe, OAc, 2′-methoxy-5′-(3-(8-methyl-7-((1-methylpiperidin-4-yl)oxy)-2-oxo-2H-chromen-3-yl)ureido)-[1,1′-biphenyl]-3-yl acetate] |  |  |  |  | IC50 (BCPAP; Homo sapiens, BCPAP, Table 8, biphenyl ureas): 0.016 µM; IC50 ([1]; Homo sapiens, SK-BR-3, Table 8, biphenyl ureas): 0.26 µM; IC50 (JMAR; JMAR, Table 8, biphenyl ureas): 2.2 µM; IC50 (DRO81-1; Table 8, biphenyl ureas): 0.26 µM; IC50 (PC-3; Homo sapiens, PC-3, Table 8, biphenyl ureas): 1.04 µM; IC50 (MRC5; MRC5, Table 8, biphenyl ureas): 3.1 µM; IC50 ([2]; Homo sapiens, MCF7, Table 8, biphenyl ureas): 0.27 µM; IC50 (MDAMB231; Homo sapiens, MDA-MB-231, Table 8, biphenyl ureas): 0.39 µM; IC50 (MDA1986; MDA1986, Table 8, biphenyl ureas): 0.85 µM; IC50 (HMLE; Table 8, biphenyl ureas): 1 µM; IC50 (HCT-116; Homo sapiens, HCT-116, Table 8, biphenyl ureas): 3.39 µM; IC50 (A-549; Homo sapiens, A549, Table 8, biphenyl ureas): 0.54 µM
2 |  |  |  |  |  |  | Cc1c(OC2CCN(C)CC2)ccc2cc(NC(=O)Nc3ccc(N(C)C)cc3)c(=O)oc12 [p-N-dimethylamine, 1-(4-(dimethylamino)phenyl)-3-(8-methyl-7-((1-methylpiperidin-4-yl)oxy)-2-oxo-2H-chromen-3-yl)urea] |  |  |  |  | IC50 (BCPAP; [3]): 0.74 µM; IC50 [1, 4]: 1.11 µM; IC50 (JMAR; [5]): 0.77 µM; IC50 (DRO81-1; [6]): > 25 µM; IC50 (PC-3; [7]): 7.96 µM; IC50 (MRC5; [8]): 14.4 µM; IC50 [2, 9]: 1 µM; IC50 (MDAMB231; [10]): 1.4 µM; IC50 (MDA1986; [11]): 17.5 µM; IC50 (HMLE; [6]): 0.96 µM; IC50 (HCT-116; [12]): 9.34 µM; IC50 (A-549; [13]): 2.7 µM
3 | > 50 | 115 | 32.1 ± 4.78 | > 25 | > 100 | 18.3 ± 12 | Cc1c(OC2CCN(C)CC2)ccc2cc(NC(=O)N3CCN(C)CC3)c(=O)oc12 [drawing 158] | > 25 | > 25 | > 25 | > 25 | 
4 |  |  |  |  |  |  | CC(=O)c1cccc(NC(=O)Nc2cc3ccc(OC4CCN(C)CC4)c(C)c3oc2=O)c1 [m-COCH3, 1-(3-acetylphenyl)-3-(8-methyl-7-((1-methylpiperidin-4-yl)oxy)-2-oxo-2H-chromen-3-yl)urea] |  |  |  |  | IC50 (BCPAP; [3]): 0.27 µM; IC50 [1, 4]: 0.83 µM; IC50 (JMAR; [5]): 15.7 µM; IC50 (DRO81-1; [6]): 13.6 µM; IC50 (PC-3; [7]): 1.23 µM; IC50 (MRC5; [8]): > 25 µM; IC50 [2, 9]: 1.17 µM; IC50 (MDAMB231; [10]): 0.61 µM; IC50 (MDA1986; [11]): 21 µM; IC50 (HMLE; [6]): 1.9 µM; IC50 (HCT-116; [12]): 0.72 µM; IC50 (A-549; [13]): 0.54 µM
5 | 3.96 ± 0.14 | 4.54 ± 0.46 | 1.77 ± 0.26 | 3.8 | 12.1 ± 0.61 | 4.85 ± 0.29 | Cc1c(OC2CCN(C)CC2)ccc2cc(NC(=O)NC(C)(C)C)c(=O)oc12 [drawing 157] | 2.57 | 2.1 | > 25 | 21.5 | 
6 |  | 0.87 ± 0.33 |  | 7.9 | 0.66 ± 0.15 | 0.28 ± 0.03 | Cc1c(OC2CCN(C)CC2)ccc2cc(NC(=O)NCc3ccccc3)c(=O)oc12 [drawing 159] | 0.045 | > 25 | 14.6 | 14.4 | 
7 | 1.21 ± 0.02 | 1.27 ± 0.09 | 3.36 ± 0.16 | 2.8 | 5.95 ± 2.92 | 3.57 ± 0.55 | Cc1c(OC2CCN(C)CC2)ccc2cc(NC(=O)N(Cc3ccccc3)Cc3ccccc3)c(=O)oc12 [drawing 161] | 1.81 | 0.7 | 1.9 | 3.65 | 

Row | SMILES | IC50 ([1]; Table 9, non-aryl ureas) [µM] | IC50 (PC-3; Table 9, non-aryl ureas) [µM] | IC50 ([2]; Table 9, non-aryl ureas) [µM] | IC50 (MDAMB231; Table 9, non-aryl ureas) [µM] | IC50 (HCT-116; Table 9, non-aryl ureas) [µM] | IC50 (A-549; Table 9, non-aryl ureas) [µM] | IC50 (BCPAP; Table 9, non-aryl ureas) [µM] | IC50 (JMAR; Table 9, non-aryl ureas) [µM] | IC50 (DRO81-1; Table 9, non-aryl ureas) [µM] | IC50 (MDA1986; Table 9, non-aryl ureas) [µM] | further results
8 | Cc1c(OC2CCN(C)CC2)ccc2cc(NC(=O)N(C)Cc3ccccc3)c(=O)oc12 [drawing 160] |  | 28.7 ± 24.6 |  | > 25 | 183 | 138 | 0.0084 | 7.5 | 19.5 | 13.4 | 

— patent publication US10030006B2, “Coumarin based Hsp90 inhibitors with urea and ether substituents” (University of Kansas, priority 2013, dated 2018)
